Data published in ChEMBL document CHEMBL3046213, “Repellent, insecticidal and phytotoxic activities of isoalantolactone from Inula racemosa” (Crop Prot, 2006).

What was measured:
[1] = tested on: Sitophilus oryzae; experiment: Insecticidal activity against Sitophilus oryzae (rice weevil) assessed as mortality at 0.05 ug/g after 20 days by food poison technique relative to acetone-treated control; type: functional
[2] = tested on: Triticum aestivum; experiment: Phytotoxicity in Triticum aestivum (wheat) assessed as shoot growth at 500 ug/ml pre-soaked for 30 min measured after 72 hr relative to acetone-treated control; type: organism-based; settings: in vivo
[3] = tested on: Triticum aestivum; experiment: Phytotoxicity in Triticum aestivum (wheat) assessed as shoot growth at 500 ug/ml pre-soaked for 60 min measured after 48 hr relative to acetone-treated control; type: organism-based; settings: in vivo
[4] = tested on: Sitophilus oryzae; experiment: Insecticidal activity against Sitophilus oryzae (rice weevil) assessed as mortality at 3000 ug/g after 10 days by food poison technique relative to acetone-treated control; type: functional
[5] = tested on: Sitophilus oryzae; experiment: Insecticidal activity against Sitophilus oryzae (rice weevil) assessed as mortality at 2000 ug/g after 10 days by food poison technique relative to acetone-treated control; type: functional
[6] = tested on: Sitophilus oryzae; experiment: Insecticidal activity against Sitophilus oryzae (rice weevil) assessed as mortality at 2000 ug/g after 15 days by food poison technique relative to acetone-treated control; type: functional
[7] = tested on: Sitophilus oryzae; experiment: Insecticidal activity against Sitophilus oryzae (rice weevil) assessed as mortality after 15 days by food poison technique; type: functional
[8] = tested on: Triticum aestivum; experiment: Phytotoxicity in Triticum aestivum (wheat) assessed as germination rate at 500 ug/ml pre-soaked for 60 min measured after 48 hr relative to acetone-treated control; type: organism-based; settings: in vivo
[9] = tested on: Triticum aestivum; experiment: Phytotoxicity in Triticum aestivum (wheat) assessed as germination rate at 500 ug/ml pre-soaked for 60 min measured after 24 hr relative to acetone-treated control; type: organism-based; settings: in vivo
[10] = tested on: Sitophilus oryzae; experiment: Insecticidal activity against Sitophilus oryzae (rice weevil) assessed as mortality at 0.05 ug/g after 5 days by food poison technique relative to acetone-treated control; type: functional
[11] = tested on: Sitophilus oryzae; experiment: Repellent activity against Sitophilus oryzae (rice weevil) assessed as settling responses at 75 ug/g preincubated for 12 hr prior to inoculation measured after 24 hr by food preference chamber method (reference value: 49.45 +/- 2.65 %); type: functional
[12] = tested on: Triticum aestivum; experiment: Phytotoxicity in Triticum aestivum (wheat) assessed as shoot growth at 500 ug/ml pre-soaked for 30 min measured after 96 hr relative to acetone-treated control; type: organism-based; settings: in vivo
[13] = tested on: Sitophilus oryzae; experiment: Insecticidal activity against Sitophilus oryzae (rice weevil) assessed as mortality at 1000 ug/g after 5 days by food poison technique relative to acetone-treated control; type: functional
[14] = tested on: Sitophilus oryzae; experiment: Insecticidal activity against Sitophilus oryzae (rice weevil) assessed as mortality at 0.05 ug/g after 10 days by food poison technique relative to acetone-treated control; type: functional
[15] = tested on: Sitophilus oryzae; experiment: Insecticidal activity against Sitophilus oryzae (rice weevil) assessed as mortality at 2000 ug/g after 5 days by food poison technique relative to acetone-treated control; type: functional
[16] = tested on: Triticum aestivum; experiment: Phytotoxicity in Triticum aestivum (wheat) assessed as shoot growth at 500 ug/ml pre-soaked for 30 min measured after 120 hr relative to acetone-treated control; type: organism-based; settings: in vivo
[17] = tested on: Sitophilus oryzae; experiment: Insecticidal activity against Sitophilus oryzae (rice weevil) assessed as mortality at 400 ug/g after 20 days by food poison technique relative to acetone-treated control; type: functional
[18] = tested on: Sitophilus oryzae; experiment: Insecticidal activity against Sitophilus oryzae (rice weevil) assessed as mortality at 400 ug/g after 5 days by food poison technique relative to acetone-treated control; type: functional
[19] = tested on: Triticum aestivum; experiment: Phytotoxicity in Triticum aestivum (wheat) assessed as root growth at 500 ug/ml pre-soaked for 60 min measured after 96 hr relative to acetone-treated control; type: organism-based; settings: in vivo
[20] = tested on: Sitophilus oryzae; experiment: Insecticidal activity against Sitophilus oryzae (rice weevil) assessed as mortality after 5 days by food poison technique; type: functional
[21] = tested on: Triticum aestivum; experiment: Phytotoxicity in Triticum aestivum (wheat) assessed as shoot growth at 500 ug/ml pre-soaked for 60 min measured after 72 hr relative to acetone-treated control; type: organism-based; settings: in vivo
[22] = tested on: Triticum aestivum; experiment: Phytotoxicity in Triticum aestivum (wheat) assessed as germination rate at 500 ug/ml pre-soaked for 30 min measured after 96 hr relative to acetone-treated control; type: organism-based; settings: in vivo
[23] = tested on: Sitophilus oryzae; experiment: Insecticidal activity against Sitophilus oryzae (rice weevil) assessed as mortality at 600 ug/g after 20 days by food poison technique relative to acetone-treated control; type: functional
[24] = tested on: Sitophilus oryzae; experiment: Insecticidal activity against Sitophilus oryzae (rice weevil) assessed as increase in mortality after 5 to 20 days by food poison technique; type: functional, organism-based
[25] = tested on: Triticum aestivum; experiment: Phytotoxicity in Triticum aestivum (wheat) assessed as root growth at 500 ug/ml pre-soaked for 30 min measured after 48 hr relative to acetone-treated control; type: organism-based; settings: in vivo
[26] = tested on: Sitophilus oryzae; experiment: Insecticidal activity against Sitophilus oryzae (rice weevil) assessed as mortality at 1000 ug/g after 15 days by food poison technique relative to acetone-treated control; type: functional
[27] = tested on: Sitophilus oryzae; experiment: Insecticidal activity against Sitophilus oryzae (rice weevil) assessed as mortality after 20 days by food poison technique; type: functional
[28] = tested on: Triticum aestivum; experiment: Phytotoxicity in Triticum aestivum (wheat) assessed as germination rate at 500 ug/ml pre-soaked for 30 min measured after 72 hr relative to acetone-treated control; type: organism-based; settings: in vivo
[29] = tested on: Sitophilus oryzae; experiment: Insecticidal activity against Sitophilus oryzae (rice weevil) assessed as mortality at 600 ug/g after 5 days by food poison technique relative to acetone-treated control; type: functional
[30] = tested on: Sitophilus oryzae; experiment: Repellent activity against Sitophilus oryzae (rice weevil) assessed as settling responses at 125 ug/g preincubated for 12 hr prior to inoculation measured after 24 hr by food preference chamber method (reference value: 49.45 +/- 2.65 %); type: functional
[31] = tested on: Triticum aestivum; experiment: Phytotoxicity in Triticum aestivum (wheat) assessed as root growth at 500 ug/ml pre-soaked for 60 min measured after 72 hr relative to acetone-treated control; type: organism-based; settings: in vivo

SMILES: C=C1C(=O)O[C@@H]2C[C@@]3(C)CCCC(=C)[C@@H]3C[C@H]12 [ISOALANTOLACTONE]
- mortality [1]: 100%
- Activity [2]: 102%
- Activity [3]: 53.7%
- mortality [4]: 100%
- mortality [5]: 100%
- mortality [6]: 100%
- LC50 [7]: 655.31 µg/g
- Activity [8]: 76.1%
- Activity [9]: 25%
- mortality [10]: 86.54%
- Activity [11]: 12.41%
- Activity [12]: 96%
- mortality [13]: 42.86%
- mortality [14]: 100%
- mortality [15]: 76.19%
- Activity [16]: 100.4%
- mortality [17]: 35.91%
- mortality [18]: 19.04%
- Activity [19]: 76.9%
- LC50 [20]: 1234.57 µg/g
- Activity [21]: 51.7%
- Activity [22]: 100%
- mortality [23]: 58.97%
- Activity [24]: Dose-dependent effect
- Activity [25]: 100.7%
- mortality [26]: 69.23%
- LC50 [27]: 610.51 µg/g
- Activity [28]: 100%
- mortality [29]: 33.33%
- Activity [30]: 13.22%
- Activity [31]: 63.7%
